Test results from patent US20110245242A1, “Heterocyclically Substituted Anilinopyrimides” (Bayer CropScience AG, priority 2008, published 2011).
Read-outs that look alike come from different tables or passages of the source. Marks after values point to notes of the source that are not given here.

Key:
[1] = log P by HPLC on reversed-phase columns (C 18), method [a], acidic range pH 2.3; assay type: physicochemical
Method: The log P values were measured in accordance with EEC Directive 79/831 Annex V.A8 by HPLC (High Performance Liquid Chromatography) on reversed-phase columns (C 18) using the methods below: [a] The determination was carried out in the acidic range at pH 2.3 using the mobile phases 0.1% aqueous phosphoric acid and acetronitrile linear gradient from 10% acetonitrile to 95% acetronitrile.

Fusarium proliferatum = experiment: Production of Fumonisin FB1 by Fusarium proliferatum (microtitre plates; FB1 by HPLC-MS/MS, growth by OD620); assay type: cell-based; details: for IC50: Fusarium proliferatum, 144 h
[2] = log P by LC-MS, method [b], acid range pH 2.7; assay type: physicochemical
Method: The log P values were measured in accordance with EEC Directive 79/831 Annex V.A8 by HPLC (High Performance Liquid Chromatography) on reversed-phase columns (C 18) using the methods below:
[b] The LC-MS determination in the acid range was carried out at pH 2.7 using the mobile phases 0.1% aqueous formic acid and acetonitrile (contains 0.1% formic acid)
linear gradient from 10% acetonitrile to 95% acetonitrile.

physchem [3] = assay type: physicochemical; details: pH 7.8
Method: The log P values were measured in accordance with EEC Directive 79/831 Annex V.A8 by HPLC (High Performance Liquid Chromatography) on reversed-phase columns (C 18) using the methods below: [c] The LC-MS determination in the neutral range was carried out at pH 7.8 using the mobile phases 0.001 molar aqueous ammonium bicarbonate solution and acetonitrile linear gradient from 10% acetonitrile to 95% acetonitrile.

physchem [4] = assay type: physicochemical; details: pH 7
Sphaerotheca fuliginea = experiment: Sphaerotheca test (cucumber)/protective; assay type: in vivo; details: Podosphaera fuliginea, 168 h, active compound concentration of 500 ppm, protective, evaluation 7 days after the inoculation, read-out: efficacy
Fusarium graminearum = experiment: microbe, parasite or virus in culture; assay type: cell-based; details: 168 h, read-out: activity in the inhibition of DON/AcDON
[5] = assay type: physicochemical
Method: The log P values were measured in accordance with EEC Directive 79/831 Annex V.A8 by HPLC (High Performance Liquid Chromatography) on reversed-phase columns (C 18) using the methods below: […]

Phakopsora pachyrhizi = experiment: Phakopsora test (soya beans)/protective; assay type: in vivo; details: active compound concentration of 250 ppm, protective, evaluation 1 day after the inoculation
[6] = OD620 at the beginning and after 6 days
[7] = FB1 concentration in liquid medium after 6 days at 20° C., HPLC-MS/MS

Compound	pI50 growth (Fusarium proliferatum; [6])	pI50 Fum (Fusarium proliferatum; [7])	log p (physchem [3])	log p ([2]; pH 2.7)	pest or weed control at 500 ppm (Sphaerotheca fuliginea) [%]	also measured
1-(3-{[4-(Cyclopropylamino)-5-(trifluoromethyl)pyrimidin-2-yl]amino}phenyl)pyrrolidin-2-one [Example 236]	4.9					log P (pH 2.3) ([1]; pH 2.3): 1.49; log p ([2]; method [b], LC-MS, acid range pH 2.7): 1.49[b]
CCC(C)Nc1nc(Nc2cccc(N3CCCC3=O)c2)ncc1Cl (stereo not shown) [Example 8]	4	4.6	2.92[c]			log p ([1]; pH 2.3): 1.84[a];
CC1CCN(c2cccc(Nc3ncc(Br)c(NC4CCC4)n3)c2)C1=O (stereo not shown) [Example 27]	5.6	6.2		2.09[b]		log p ([1]; pH 2.3): 2.24[a];
S=C1CCCN1c1cccc(Nc2ncc(Cl)c(NC3CC3)n2)c1 [Example 33, 1-(3-{[5-Chloro-4-(cyclopropylamino)pyrimidin-2-yl]amino}phenyl)pyrrolidine-2-thione]					≥ 70	chromatographic logP (physchem [4]): 2.54; chromatographic logP ([1]; pH 2.3, log p): 1.69; chromatographic logP (physchem [3]): 2.54
O=C1OCCN1c1cccc(Nc2ncc(Cl)c(NC3CCC3)n2)c1 [Example 59, 3-(3-{[5-Chloro-4-(cyclobutylamino)pyrimidin-2-yl]amino}phenyl)-1,3-oxazolidin-2-one]					≥ 70	chromatographic logP ([1]; pH 2.3, log P (pH 2.3)): 1.64; chromatographic logP ([1]; pH 2.3, log p): 1.64; IC50 (Fusarium proliferatum; FB1 concentration in liquid medium after 6 days at 20° C., HPLC-MS/MS, read-out: pI50 Fum (converted)): 631 nM; IC50 (Fusarium proliferatum; OD620 at the beginning and after 6 days, read-out: pI50 growth (converted)): 2510 nM; inhibition at 50 µM (Fusarium graminearum): > 80%; chromatographic logP ([2]; pH 2.7): 1.64
CC1CCC(=O)N1c1cccc(Nc2ncc(Br)c(NC3CC3)n2)c1 (stereo not shown) [Example 60]	5.5	6.3		1.72[b]		log p ([1]; pH 2.3): 1.72[a];
CC1(C)CC(=O)N(c2cccc(Nc3ncc(C(F)(F)F)c(NC4CC4)n3)c2)C1=O [Example 62]	5.7	6.2				log p ([1]; pH 2.3): 2.63[a]
CC1(C)CC(=O)N(c2cccc(Nc3ncc(Br)c(NC4CCC4)n3)c2)C1=O [Example 63]	5.7	6.6				log p ([1]; pH 2.3): 2.19[a]
CC1CC(C)N(c2cccc(Nc3ncc(Br)c(NC4CC4)n3)c2)C1=O (stereo not shown) [Example 84]		6.3	2.91[c];	2.01[b]		
C[C@H]1COC(=O)N1c1cccc(Nc2ncc(Cl)c(NC3CC3)n2)c1 [Example 92]	5.7	6.6	2.42[c];	1.54[b]		
CCOC1CCC(=O)N1c1cccc(Nc2ncc(Cl)c(NC3CC3)n2)c1 (stereo not shown) [Example 106, 1-(3-{[5-Chloro-4-(cyclopropylamino)pyrimidin-2-yl]amino}phenyl)-5-ethoxypyrrolidin-2-one]					≥ 70	chromatographic logP ([1]; pH 2.3, log P (pH 2.3)): 1.65; chromatographic logP ([1]; pH 2.3, log p): 1.65
O=C1CCC(=O)N1c1cc(Nc2ncc(C(F)(F)F)c(NC3CC3)n2)ccc1Cl [Example 119, 1-(2-Chloro-5-{[4-(cyclopropylamino)-5-(trifluoromethyl)pyrimidin-2-yl]amino}phenyl)pyrrolidine-2,5-dione]					≥ 70	chromatographic logP ([1]; pH 2.3, log P (pH 2.3)): 2.49; chromatographic logP ([2]; pH 2.7): 2.49
CC(C)Nc1nc(Nc2cccc(N3C(=O)C(C)CC3C)c2)ncc1Cl (stereo not shown) [Example 141]	5	5.3	3.15[c];	1.88[b]		
CC1CCN(c2cccc(Nc3ncc(Br)c(NC4CC4)n3)c2)C1=O (stereo not shown) [Example 187]	5.8	6.3	2.83[c];	1.87[b]		
CCOC(=O)[C@@H]1CCC(=O)N1c1cccc(Nc2ncc(Cl)c(NC3CC3)n2)c1 [Example 190, Ethyl 1-(3-{[5-chloro-4-(cyclopropylamino)pyrimidin-2-yl]amino}phenyl)-5-oxo-L-prolinate]					≥ 70	chromatographic logP ([1]; pH 2.3, log P (pH 2.3)): 1.69; chromatographic logP ([2]; pH 2.7): 1.69; chromatographic logP (physchem [3]): 2.53
O=C1CCC(=O)N1c1cccc(Nc2ncc(Cl)c(NC3CC3)n2)c1 [Example 195]		6.2	1.98[c];			log p [5]: 0.99[d]
CN(c1nc(Nc2ccc(F)c(N3CCCC3=O)c2)ncc1Cl)C1CC1 [Example 198]	4.8	5.5	2.92[c];	2.53[b]		
COCC(C)Nc1nc(Nc2cccc(N3C(=O)CCC3=O)c2)ncc1Cl (stereo not shown) [Example 202]			2.13[c];	1.26[b];		log p [5]: 1.02[d]
O=C1CCC(=O)N1c1cccc(Nc2ncc(Cl)c(NC3CCC3)n2)c1 [Example 203]			2.32[c];	1.48[b];		log p [5]: 1.24[d]
CCC1CC(C)C(=O)N1c1cccc(Nc2ncc(Cl)c(NC3CC3)n2)c1 (stereo not shown) [Example 206, 1-(3-{[5-Chloro-4-(cyclopropylamino)pyrimidin-2-yl]amino}phenyl)-5-ethyl-3-methylpyrrolidin-2-one]					≥ 70	chromatographic logP ([1]; pH 2.3, log P (pH 2.3)): 2.19; chromatographic logP ([2]; pH 2.7): 2.19; chromatographic logP (physchem [3]): 3.15
CCC1CC(C)C(=O)N1c1cccc(Nc2ncc(Br)c(NC3CCC3)n2)c1 (stereo not shown) [Example 211]				2.63[b];		log p [5]: 2.19[d]
FC(F)(F)c1cnc(Nc2cccc(N3CCCC3=S)c2)nc1NC1CC1 [Example 214]	5	5.1	2.86[c];	2.59[b]		efficacy (Phakopsora pachyrhizi): ≥ 80%
O=CN(c1cccc(N2CCCC2=O)c1)c1ncc(Cl)c(NC2CC2)n1 [Example 217, N-[5-Chloro-4-(cyclopropylamino)pyrimidin-2-yl]-N-[3-(2-oxopyrrolidin-1-yl)phenyl]-formamide]					≥ 70	chromatographic logP ([1]; pH 2.3, log P (pH 2.3)): 1.22; chromatographic logP ([2]; pH 2.7): 1.49
CCC1=C(C)CN(c2cccc(Nc3ncc(Cl)c(NC4CC4)n3)c2)C1=O [Example 224]	5.3	6				log p ([1]; pH 2.3): 2.2[a]
COCC(=O)N(c1cccc(N2CCCC2=O)c1)c1ncc(Cl)c(NC2CC2)n1 [Example 231, N-[5-Chloro-4-(cyclopropylamino)pyrimidin-2-yl]-2-methoxy-N-[3-(2-oxopyrrolidin-1-yl)phenyl]acetamide]					≥ 70	chromatographic logP ([1]; pH 2.3, log P (pH 2.3)): 1.87; chromatographic logP ([2]; pH 2.7): 1.87; chromatographic logP (physchem [3]): 1.82
